# Source: article PMC8761492 (Life Science Alliance, 2022)
# Where “and” joins values, the source holds several entries; their conditions need not be identical. Equal entries are not always repeated. Where two headings read alike, the source gives them in different places. Starred links: 1 amine or outer side, 2 acyl side, 3 side chain; linkers in the order of their positions; H or OH if unused. Positions of bridges follow the written chain, without caps; N, C: chain ends. Non-standard residues stand in square brackets, D forms with d. Residues, ends and D or L forms follow the SMILES beside them. *: point of attachment. X1 = CC[C@H](C)[C@@H](N[*:1])[C@@H](O)CC(=O)O[C@H](C(=O)[C@H](C)C(=O)[*:2])C(C)C; NMeY = CN[C@@H](Cc1ccc(O)cc1)C(=O)O; dNMeL = CN[C@H](CC(C)C)C(=O)O; Pyruvoyl = CC(=O)C(=O)*
# Assays:
# HCoV-229E-GFP virus = assay: microbe, parasite or virus in culture; assay type: cell-based, human coronavirus 229E; conditions: Huh-7 cells
# [1] = Plasma protein binding by equilibrium dialysis, rat plasma; assay type: in vitro ADME; conditions: male, CD, independent of drug concentration
# Experimental: The binding of plitidepsin to plasma proteins was determined in vitro at three concentrations (100, 250 and 500 ng/ml) in male rat, dog and human plasma ([53]).
# Rat (CD), beagle dog, and human blood was collected at Aptuit Srl from at least three male donors, and plasma prepared by centrifuging blood at 2,000g, 4°C for 10 min. Human plasma was obtained from healthy and fasted male volunteers. Na-heparin was used as the anti-coagulant for all species. All plasma was stored at approximately −20°C and thawed only once, on the day of the experiment.
# Plasma protein binding was assessed using Rapid Equilibrium Dialysis plates pre-loaded with equilibrium dialysis membrane inserts (MWCO ∼8 kD).
# Separation of free compound from protein-bound material was achieved by dialysis of the sample through the membrane under appropriate shaking at 37°C. The suitability of equilibrium dialysis as a method for protein binding determination of plitidepsin was assessed.
# Before experimentation, the time required to reach equilibrium was determined in male rat and human plasma at one concentration (250 ng/ml) and six selected time points (2, 3, 4, 5, 6, and 7 h) at 37°C. […]
# [2] = APLICOV-PC: safety, adverse events and laboratory abnormalities; assay type: in vivo, human
# Experimental: The plitidepsin clinical proof-of-concept study (APLICOV-PC, APL-D-002-20; EudraCT #2020-001993-31; NCT04382066) was a multicenter, randomized, parallel, open-label, proof-of-concept clinical trial, exploring three dose levels of plitidepsin (1.5, 2.0, and 2.5 mg/day, flat doses) for 3 consecutive days, as a 90-min i.v. infusion, in adult patients with COVID-19 who required hospitalization. The study was conducted in 10 hospital centers in Spain between 12 May 2020 and 26 November 2020. Presented data reflect all analyses completed by the cut-off date of 10 December 2020. The research was performed in accordance with good clinical practice guidelines and adhered to the tenets of the Declaration of Helsinki. The study protocol is available in Supplemental Data 1. Supplemental Data 2 summarizes the protocol amendments as well as post hoc analyses that were performed.
# Adult (aged ≥18 yr) hospitalized patients with a positive SARS-CoV-2 infection confirmed by real-time RT-PCR testing of a nasopharyngeal exudate or the lower respiratory tract were eligible for inclusion in this study. Despite the eligibility of patients with samples from the lower respiratory tract, all patients reported here had only nasopharyngeal swab samples. Included patients must have had the onset of SARS-CoV-2 infection symptoms no more than 10 d before initiating the study. […] Women and men with partners of childbearing potential agreed to take effective contraception while on study and for 6 mo after the last dose of plitidepsin. All included patients provided written informed consent before the initiation of the study.
# Key exclusion criteria included participation in another COVID-19–related clinical trial; receiving antivirals, chloroquine or derivatives, IL-6 receptor inhibitors, or immunomodulatory drugs for treatment of COVID-19; or requiring mechanical ventilation support at enrollment. Patients were also excluded for evidence of multi-organ failure, clinically relevant heart disease, clinically relevant arrhythmia or history of QTc interval prolongation, or neuropathy ≥ grade 2. Full exclusion criteria can be found in Supplemental Data 1.
# Randomization was done through registration in the study’s electronic case report form. The system assigned a unique randomization number for each patient. Patients were enrolled sequentially and allocated by block randomization into the three dose groups (1.5, 2.0, and 2.5 mg plitidepsin) up to an initial sample size of nine patients per group. To ensure safety, the first three patients in the 2.0 mg group could not be enrolled until the first three patients in the 1.5 mg cohort had successfully completed Day 15 assessments (12 d after completing plitidepsin dosing); similarly, the first three patients in the 2.5 mg cohort could be not enrolled until the first three patients in the 2.0 mg cohort had successfully completed Day 15 assessments (12 d after completing plitidepsin dosing). Finally, three patients had to be treated in the 2.5 mg cohort to complete the accrual of nine patients per cohort. When multiple dose levels were open for enrollment, patients were randomized 1:1 or 1:1:1 as appropriate (Fig 4). After an interim safety analysis, a protocol amendment was approved to subsequently expand the accrual up to 45 patients (six additional patients per dose group).
# Enrolled patients received plitidepsin administered as an i.v. infusion over 90 min on days 1, 2, and 3 at dose levels of 1.5, 2.0, and 2.5 mg. A single batch (Lot 16D19) was administered to all patients. All patients also received, 20–30 min before the infusion of plitidepsin (i.e., on days 1–3), a premedication regimen consisting in: diphenhydramine 25 mg i.v., ranitidine 50 mg i.v., and dexamethasone 8 mg orally. […]
# [3] = human, cited from earlier work
# [4] = Post-amendment (n = 36), Grade 1
# [5] = Post-amendment (n = 36), Grade 2
# [6] = after the premedication amendment
# [7] = before the premedication amendment
smiles,measurement,setting,value
CC[C@H](C)[C@H]1NC(=O)[C@@H](NC(=O)[C@@H](CC(C)C)N(C)C(=O)[C@@H]2CCCN2C(=O)C(C)=O)[C@@H](C)OC(=O)[C@H](Cc2ccc(OC)cc2)N(C)C(=O)[C@@H]2CCCN2C(=O)[C@H](CC(C)C)NC(=O)[C@@H](C)C(=O)[C@H](C(C)C)OC(=O)C[C@@H]1O [Plitidepsin] (Pyruvoyl-P[dNMeL]T[X1]LP[NMeY](Me); ester 3-C),concentration of plitidepsin with antiviral effect on HCoV-229E-GFP,"HCoV-229E-GFP virus; as low as, equals 0.5 nM",≤ 0.555 µg/L
same,IC50,"HCoV-229E-GFP virus; Human coronavirus 229E, study protocol, read-out: IC50 assumed from the HCoV-229E-GFP experiment",0.5 nM and 0.000555 µg/mL
same,fraction unbound,[1],0.04
same,prevalence of grade 3–4 AEs,[2]; 1.5 mg cohort,33.3%
same,prevalence of grade 3–4 AEs,[2]; 2.0 mg cohort,20.0%
same,prevalence of grade 3–4 AEs,[2]; 2.5 mg cohort,40.0%
same,patients with Grade 1 increase in CPK,[2]; 3 of 37 with normal baseline values,8.1%
same,patients whose platelet counts normalized,[2]; 5 of 12 with Grade 1 thrombocytopenia at entry,41.7%
same,patients with hyperglycemia,"[2]; 8 of 45, none considered related to plitidepsin",18%
same,patients with elevation of AST,"[2]; 13 of 44, regardless of causality",30%
same,patients with elevation of ALT,"[2]; 29 of 44, regardless of causality",66%
same,hypersensitivity reactions after changes to premedication,"[2]; 36 patients, 108 infusions",No new hypersensitivity reactions
same,serious adverse event considered related to the study drug,"[2]; Grade 3 hypersensitivity reaction, one event",2.2 % subjects
same,Abdominal pain,[2]; [4],2 (5.6%) N (%)
same,Anorexia,[2]; [4],1 (2.8%) N (%)
same,Asthenia,[2]; [4],1 (2.8%) N (%)
same,Chest discomfort,[2]; [4],1 (2.8%) N (%)
same,Diarrhea,[2]; [4],1 (2.8%) N (%)
same,Dizziness,[2]; [4],2 (5.6%) N (%)
same,Dysgeusia,[2]; [4],2 (5.6%) N (%)
same,Dyspepsia,[2]; [4],2 (5.6%) N (%)
same,Dysthermia,[2]; [4],1 (2.8%) N (%)
same,Nausea,[2]; [4],11 (30.6%) N (%)
same,Temperature regulation disorder,[2]; [4],1 (2.8%) N (%)
same,Vomiting,[2]; [4],3 (8.3%) N (%)
same,Amylase increased,[2]; [5],1 (2.8%) N (%)
same,Asthenia,[2]; [5],1 (2.8%) N (%)
same,Decreased appetite,[2]; [5],1 (2.8%) N (%)
same,Diarrhea,[2]; [5],1 (2.8%) N (%)
same,Lipase increased,[2]; [5],1 (2.8%) N (%)
same,Nausea,[2]; [5],3 (8.3%) N (%)
same,Vomiting,[2]; [5],2 (5.6%) N (%)
same,Diarrhea,"[2]; Post-amendment (n = 36), Grade 3",1 (2.8%) N (%)
same,Nausea,"[2]; Pre-amendment (n = 9), Grade 1",3 (33.3%) N (%)
same,Vomiting,"[2]; Pre-amendment (n = 9), Grade 1",2 (22.2%) N (%)
same,Nausea,"[2]; Pre-amendment (n = 9), Grade 2",2 (22.2%) N (%)
same,Anaphylactic reaction,"[2]; Pre-amendment (n = 9), Grade 3",1 (11.1%) N (%)
same,proportion of patients with nausea,[2]; [6],38.9%
same,proportion of patients with vomiting,[2]; [6],13.9%
same,Grade 4 AEs,[2]; all doses,No Grade 4 AEs were reported
same,hemotoxicity,[2]; all doses,did not show signs of clinically relevant hemotoxicity
same,patients with treatment related adverse events,"[2]; all doses, 25 patients",55.5%
same,patients with one or more adverse events,"[2]; all doses, 44 of 45",97.8%
same,treatment-related abdominal pain,"[2]; all doses, 45 treated patients",4.4%
same,treatment-related diarrhea,"[2]; all doses, 45 treated patients",6.7%
same,treatment-related dizziness,"[2]; all doses, 45 treated patients",4.4%
same,treatment-related dysgeusia,"[2]; all doses, 45 treated patients",4.4%
same,treatment-related nausea,"[2]; all doses, 45 treated patients",42.2%
same,treatment-related vomiting,"[2]; all doses, 45 treated patients",15.6%
same,patients with at least one Grade ≥ 3 AE regardless of causality,"[2]; all doses, NCI-CTCAE v5",31%
same,number of Grade 3 AEs attributed to plitidepsin,[2]; anaphylactic reaction at 1.5 mg/day and diarrhea at 2.5 mg/day,Two
same,proportion of patients with nausea,[2]; [7],55.6%
same,proportion of patients with vomiting,[2]; [7],22.2%
same,patients whose CPK values decreased on study,[2]; four of five with Grade 1–2 elevation at entry,80%
same,patients who died (COVID-19-related),"[2]; three of 45 treated patients, days 22, 30 and 57",6.7%
same,half-life,"[3]; plasma concentrations, non-compartmental analysis, ref study APL-B-015-14",48.1 h
same,half-life,"[3]; whole blood concentrations, ref pharmacokinetic population analysis",161 h
